Our source for the GI50 and TGI values is PubChem BioAssay (NCI).

What all share (test): NCI anticancer screen, dose series, 48 h
In assay [1] the test system is UACC-62 melanoma.
The test system of assay [2] is NCI/ADR-RES ovarian.
Assay [3] deals with NCI-H23 lung.
Assay [4] relates to HL-60(TB) leukemia.
For assay [5], the system named is T-47D breast.
In assay [6] the test system is RXF 393 renal.
Assay [7] concerns NCI-H226 lung.
The test system of assay [8] is HCT-116 colon.
For assay [9], the system named is LOX IMVI melanoma.
Assay [10] has as its system SNB-75 CNS.

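Following 48 hours of exposure in 96-well plates, responses at five concentrations were used to interpolate endpoints linearly. At the GI50, growth is halved. TGI denotes the concentration required for complete inhibition of growth.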

As for `CCCCOC1OC(COC(=O)C(C)C)C(OC(=O)C(C)C)C(O)C1OC1OC(C)C(OC(=O)CCC)C(OC(=O)C(C)C)C1O` (stereo not given), the GI50 in assay [1] was 12.3 µM; in assay [2], 3.85 µM; in assay [3], 14 µM; in [4] it was 18.1 µM; in assay [5] it was 15 µM; in [6] it was 8.41 µM. In addition, the GI50 in [7] is 9.64 µM; in assay [8], 6.41 µM; in assay [9], 13.3 µM; in [10] it was 17.6 µM. Also, the TGI in assay [1] was 24.8 µM; in [2], 11.7 µM; in [3], 27 µM; in [4], 42.9 µM; in [5], 35.3 µM; in assay [6], 31.2 µM. Besides, the TGI in assay [7] turned out to be 22.2 µM; in [8], 18.4 µM; in assay [9], 26.1 µM; in assay [10], 31.4 µM.
`O=C(CCCN1CCC(C(O)c2ccc(F)cc2)CC1)c1ccc(F)cc1` (stereo not given): the TGI was found to be 114 µM in assay [1]; 149 µM in assay [2]; 134 µM in assay [3]; 120 µM in assay [4]; 137 µM in [5]; 98.3 µM in assay [6]. Moreover, the TGI stood at 111 µM in assay [7], 116 µM in assay [8], 103 µM in [9] and 98.5 µM in assay [10].
Take `COc1cc(C)c2sc3ccccc3c(=O)c2c1NCCN(C)C`: the GI50 is 1.87 µM in assay [1]; 12.4 µM in [2]; 13.1 µM in assay [3]; 4.68 µM in [4]; 2.58 µM in assay [5]; 2.4 µM in [6]. Further, the GI50 in assay [7] is 2.3 µM; in assay [8] it was 3.73 µM; in assay [9], 3.66 µM; in assay [10], 2.21 µM. Besides, the TGI in assay [1] was found to be 3.8 µM; in assay [2], 27 µM; in [3], 28 µM; in assay [4] it was 16.3 µM; in assay [5] it was 9.4 µM; in [6] it was 9.41 µM. For the same compound, the TGI in [7] was determined as 6.81 µM; in [8] it was 13.6 µM; in [9], 13.1 µM; in assay [10], 13.2 µM.
Turning to `Cc1cc(O)c(C2=NN(c3ccc(S(N)(=O)=O)cc3)C(/C=C/c3ccccc3)C2)cc1Cl` (stereo not given), the GI50 is 2.89 µM in assay [1]; 9.26 µM in assay [2]; 1.68 µM in assay [3]; 68.3 µM in [4]; 3.38 µM in [5]; 6.69 µM in assay [6]. Further, the GI50 was 5.21 µM in [7], 2.4 µM in [8], 3.94 µM in [9] and 3.39 µM in assay [10]. The TGI in assay [1] was 11.4 µM; in assay [2], 22.7 µM; in assay [3], 12.5 µM; in assay [4] it was greater than 100 µM; in assay [5], 14.7 µM; in assay [6] it was 20.2 µM. The TGI in [7] came out at 19.2 µM; in assay [8] it was 14.6 µM; in assay [9], 16.2 µM; in [10], 16.1 µM.
Take `CC(C)(C)OC(=O)NCc1cccc(N=C=S)c1`: the GI50 in assay [1] was 14.4 µM; in assay [2] it was 26.2 µM; in assay [3], 18.5 µM; in assay [4], 28.2 µM; in [5], 16.5 µM; in assay [6], 16.8 µM. Also, the GI50 in assay [7] is 19.1 µM; in [8], 18 µM; in assay [9], 16.7 µM; in [10], 14.1 µM. Further, the TGI in [1] came out at 30.6 µM; in assay [2] it was 79.4 µM; in [3] it was 47.6 µM; in assay [4], 69.8 µM; in assay [5], 36.6 µM; in assay [6], 36.1 µM. For the same compound, the TGI in assay [7] was 51.4 µM; in [8], 36 µM; in assay [9], 31.9 µM; in assay [10], greater than 59.6 µM.
As for `COC(=O)c1cc(OC)c(OC)c(OC)c1-c1cc2c(cc1C=O)OCO2`, the TGI in assay [1], in assay [2], in assay [3], in [4], in assay [5] and in [6] was greater than 10 µM in each case. Moreover, the TGI in assay [7], in assay [8], in assay [9] and in assay [10] was greater than 10 µM in each case.
`CC(=O)/C=C/c1ccc(OCc2ccc(Cl)cc2)cc1`: the GI50 in assay [1] was 218 µM; in [2], 395 µM; in assay [3], 720 µM; in [4] it was 405 µM; in assay [5] it was 182 µM; in assay [6], 568 µM. In addition, the GI50 in [7] was greater than 1000 µM; in assay [8] it was greater than 1000 µM; in assay [9], 343 µM; in assay [10], 457 µM. In addition, the TGI in assay [1], in assay [2], in assay [3], in [4], in assay [5] and in assay [6] was greater than 1000 µM in each case. The TGI in assay [7], in [8], in assay [9] and in [10] was greater than 1000 µM throughout.
Take `Nc1nc(N)c2nc3c(nc2n1)CCCCCCCCCC3`: the GI50 is 1.39 µM in [1]; 2.4 µM in assay [2]; 2.86 µM in [3]; 1.95 µM in assay [4]; greater than 100 µM in assay [5]; 4.12 µM in assay [6]. Also, the GI50 was 19 µM in assay [7], 0.379 µM in assay [8], 0.733 µM in assay [9] and 5.35 µM in [10]. Further, the TGI in [1], in [2], in [3], in assay [4], in assay [5] and in assay [6] was greater than 100 µM in each case. Besides, the TGI is greater than 100 µM in [7], greater than 100 µM in assay [8], greater than 100 µM in assay [9] and 51.2 µM in [10].
